{"source": "paper PMC8760490", "about": "“Discovery of novel furanylbenzamide inhibitors that target oncogenic tyrosine phosphatase SHP2 in leukemia cells” (The Journal of Biological Chemistry, 2021)", "type_in_all_cases": "cell-based", "key": {"[1]": {"test_system": "phospho-ERK1/2 (p-ERK1/2) in MOLM-13 AML cells", "experiment": "p-ERK1/2 immunoblot, MOLM-13", "conditions": "SBI-4668 3, 10, 30 μM, RMC-4550 1 μM", "method": "Because SHP2 activity is critical for ERK activation, we used phospho-ERK1/2 (p-ERK1/2) as a more direct readout of SHP2 inhibitor efficacy. […] This p-ERK rebound in MOLM-13 cells treated with RMC-4550 is reminiscent of previously reported data from human hepatoma Hep3B cells treated with SHP099 ([34]). We also tested the effects of SBI-4668 or RMC-4550 on two patient-derived AML samples (Fig. 4F).\nCells cultured in RPMI medium were treated as indicated in the legends to the figures. Total protein extracts were prepared in modified radioimmunoprecipitation assay lysis buffer (25 mM Tris–HCl, pH 7.4, 10% glycerol, 0.2% Triton X-100, 150 mM NaCl, 2 mM Na3VO4, and 1 mM EDTA) containing a protease inhibitor cocktail (Roche Applied Science). Equal amounts of protein were separated on 4 to 12% (p-ERK1/2 blots) or 4 to 20% (SHP2 blots) Bis–Tris gels by SDS-PAGE and transferred to nitrocellulose (p-ERK1/2 blots) or 0.2 μm polyvinylidene fluoride (SHP2 blots) membranes. Membranes were blocked in 5% dry milk (Bio-Rad) in Tris-buffered saline–Tween-20 (TBS–T) (0.1% v/v) for 1 h at RT. Protein-bound membranes were incubated with indicated primary antibody overnight at 4 °C. After washing three times with TBS-T, membranes were incubated for 1 h with horseradish peroxidase–conjugated secondary antibody and then visualized by an ECL Prime detection system (GE Healthcare). Immunoblotting experiments were carried out at least three times, and representative images are shown. Densitometric quantitation of immunoblots was performed using Image Studio Lite Software (LI-COR). Changes of phosphorylated ERK1/2 to total ERK1/2 ratios are expressed as percentage of the vehicle-treated controls. The following antibodies were used: Phospho-Erk1/2 Ab (catalog no.: 9101S; Cell Signaling); total Erk1/2 Ab (catalog no.: 9102S; Cell Signaling); SHP2 Ab (catalog no.: A301-544A; lot no.: 1; Bethyl); and GAPDH (14C10) mAb (catalog no.: 2118S; lot no.: 14; Cell Signaling)."}, "[2]": {"test_system": "BT-549 TNBC cells", "experiment": "TNBC cell viability (CellTiter-Glo), BT-549", "conditions": "Homo sapiens, BT-549; 72 h per text; 5 days per legend and method", "method": "(§1) Inhibition of SHP2 has been reported to inhibit the growth of cancer cells including Kasumi-1 acute myeloid leukemia (AML) and KYSE-520 esophageal cancer cells ([30]). […] Thus, we treated two TNBC cell lines, BT-549 and MDA-MB-468, with SBI-4668 or the SHP2 allosteric inhibitor SHP099 at various concentrations and determined cell viability after 72 h, compared with the vehicle control (Fig. 4C). […] Next, we performed an 11-day colony formation assay with TNBC cells treated with SBI-4668 or SHP099 at 5, 10, or 20 μM (Fig. 4D).\nTriple-negative breast cancer cell viability was assessed using the ATP-depletion assay CellTiter-Glo. Briefly, 2500 cells in 25 μl media (RPMI + 10% FBS + 1× penicillin–streptomycin [Omega Scientific]) were seeded per well of a 384-well tissue culture–treated plate (Greiner). About 25 nl of 1000× test compound were added using a Labcyte Echo acoustic dispenser, and the cells were incubated for 5 days before addition of 10 μl of CellTiter-Glo reagent as described by the manufacturer. Luminescence was detected on a BioTek Synergy 2 microplate reader, and the values normalized to those of vehicle (DMSO)-treated controls before being plotted using GraphPad Prism."}, "[3]": {"test_system": "MV4-11 AML cells", "experiment": "Cell viability (CellTiter-Glo), MV4-11", "conditions": "Homo sapiens, MV4-11, 72 h; 3 days in culture", "method": "as §1\nViability of AML and esophageal carcinoma cells was assessed using the ATP-depletion assay CellTiter-Glo (Promega). Cells were harvested at 1 × 10^6/ml to 2 × 10^6 cells/ml with cell numbers determined by trypan blue using the Countess Cell counter (Thermo Scientific) and resuspended in culture media. About 3000 cells (in 20 μl) were seeded in a 384-well format white and clear-bottom microplate (catalog no.: 781098; Greiner) spotted with test compound or vehicle control (DMSO) using an Echo 555 Liquid Handler. Cells were incubated for 3 days, before 10 μl of CellTiter-Glo reagent mix was added to each well and incubated for 10 min at RT. Luminescence was read on a Tecan Spark Multimode Microplate Reader, and data were analyzed using GraphPad Prism software."}, "[4]": {"test_system": "U-937 AML cells (G60R oncogenic mutation in SHP2)", "experiment": "Cell viability (CellTiter-Glo), U-937", "conditions": "Homo sapiens, U-937, 72 h, 3 days, 0.123 to 30 μM", "description": "Oncogenic gain-of-function mutations in SHP2 drive leukemogenesis in a significant number of leukemia patients. However, because of their unique mechanism of action, the existing SHP2 allosteric inhibitors lack activity against the most common SHP2 oncogenic variants. Thus, we tested whether our inhibitors could inhibit the growth of leukemia cells expressing oncogenic SHP2 variants. […] Thus, we tested both SBI-4668 and RMC-4550 on U-937 AML cells, which harbor a G60R oncogenic mutation in SHP2. We treated cells with either SBI-4668 or RMC-4550 at various concentrations, ranging from 0.123 to 30 μM (Fig. 5A). […] We also assessed the effects of SBI-4668 and RMC-4550 on ERK1/2 activation in the SHP2 mutant U-937 cell line. […]\nViability of AML and esophageal carcinoma cells was assessed using the ATP-depletion assay CellTiter-Glo (Promega). Cells were harvested at 1 × 10^6/ml to 2 × 10^6 cells/ml with cell numbers determined by trypan blue using the Countess Cell counter (Thermo Scientific) and resuspended in culture media. […] Luminescence was read on a Tecan Spark Multimode Microplate Reader, and data were analyzed using GraphPad Prism software."}, "[5]": {"test_system": "BT-549 TNBC cells", "experiment": "11-day colony formation assay, BT-549", "conditions": "5, 10 or 20 μM, 11 days", "method": "as §1\n(§2) MDA-MB-468 and […] triple-negative breast cancer cells were maintained in Dulbecco's modified Eagle's medium + 10% FBS supplemented with 1× penicillin–streptomycin/L-glutamine (Omega Scientific). About 1500 cells (in 300 μl) were seeded per well of a standard 24-well tissue culture plate (Falcon) and allowed to adhere for 24 h, before the addition of compound(s) as described. After a further 96 h, media were replaced with fresh media containing the same test compounds and concentrations. After 11 days, media were removed, and cells stained with 0.5% crystal violet (in 20% methanol; Sigma) for 20 min with agitation at 80 rpm. Stain was removed, and plates with stained cells were washed by being submerged in excess deionized water and allowed to air dry overnight before imaging."}, "[6]": {"test_system": "MDA-MB-468 TNBC cells", "experiment": "11-day colony formation assay, MDA-MB-468", "conditions": "5, 10 or 20 μM, 11 days", "method": "as §1, §2"}}}
{"compound": "O=C(Nc1ccccc1)c1cc(-c2ccc(/C=C3\\Sc4ccccc4C3=O)o2)ccc1O", "note": "[SBI-4668, (Z)-2-Hydroxy-5-(5-((3-oxobenzo[b]thiophen-2(3H)-ylidene)methyl)furan-2-yl)-N-phenylbenzamide]", "values": [{"measurement": "p-ERK1/2 levels, MOLM-13, 3 h", "setting": "[1]; 3 h", "value": "dose-dependently inhibits ERK1/2 activation"}, {"measurement": "p-ERK1/2 levels, MOLM-13, 24 h", "setting": "[1]; 24 h", "value": "dose-dependently inhibits ERK1/2 activation"}, {"measurement": "IC50", "setting": "[2]", "value": 5.4, "unit": "µM"}, {"measurement": "IC50", "setting": "[3]", "value": 8.2, "unit": "µM"}, {"measurement": "IC50", "setting": "[4]", "value": 6.3, "unit": "µM"}, {"measurement": "colony formation, BT-549", "setting": "[5]", "value": "undetectable"}, {"measurement": "colony formation, MDA-MB-468", "setting": "[6]", "value": "undetectable"}]}
